From patent US20180230127A1 (PFIZER INC., priority 2015, published 2018) come the findings set out here.

This assay addresses T1, human IRAK4 kinase domain (aa 154-460) (Homo sapiens, UniProt Q9NWZ3).
T1 construct: human IRAK4 kinase domain (aa 154-460; GenBank ID AF445802)
T1 sequence (Q9NWZ3 154-460): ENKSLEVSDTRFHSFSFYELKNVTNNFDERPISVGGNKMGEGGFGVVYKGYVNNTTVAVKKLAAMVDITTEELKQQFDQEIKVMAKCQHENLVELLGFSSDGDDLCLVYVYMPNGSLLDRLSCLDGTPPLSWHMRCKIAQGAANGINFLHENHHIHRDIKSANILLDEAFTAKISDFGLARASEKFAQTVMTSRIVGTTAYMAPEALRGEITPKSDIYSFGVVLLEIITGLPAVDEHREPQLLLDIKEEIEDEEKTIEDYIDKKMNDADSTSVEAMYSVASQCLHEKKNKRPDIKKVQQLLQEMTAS
Description: IRAK4 Enzymatic DELFIA Assay. The format is biochemical. Particulars: 0.6 mM ATP (KM); 114 pM IRAK4 kinase domain; 200 nM substrate; 5% DMSO. The method, then: IRAK4 Enzymatic DELFIA Assay.
This is an in vitro assay to measure IRAK4 enzymatic activity utilizing the DELFIA (Dissociation-Enhanced Lanthanide Fluorescent Immunoassay, Perkin-Elmer) platform, with the human IRAK4 kinase domain (aa 154-460) construct to characterize IRAK4 inhibitor and control compounds at 0.6 mM ATP (KM). The final amount of enzyme in the assay is 114 pM IRAK4 kinase domain, final concentration of substrate is 200 nM, and final concentration of DMSO is 5%.
The test compound was solubilized in DMSO to a stock concentration of 30 mM. The dose response plates were prepared with a 2 mM primary compound concentration, and then diluted in DMSO in a four-fold series for a total of 10 data points. Compounds were prepared as a 20-fold multiple of the final in-assay concentration
To begin the assay, 45 μL of reaction mixture containing 20 mM HEPES pH=7.5, 5 mM MgCl2, 0.0025% Brij-35, […], 228 pM phosphorylated recombinant human IRAK4 kinase domain (aa 154-460; GenBank ID AF445802) were aliquoted into Ultra-Clear Polypropylene, 96-well, U-Bottom Plates (Corning Life Sciences). 5 μL of test compound from the dose-response plate was added to the reaction mixture and incubated for 15 minutes at room temperature. Then 50 μL of 20 mM HEPES pH=7.5, 5 mM MgCl2, 0.0025% Brij-35, 600 μM ATP, and 400 nM ERM-biotinylated peptide (AGAGRDKYKTLRQIR) were added to start the reaction. The reaction was incubated for 90 minutes at room temperature and stopped by the addition of 25 μL 0.5M EDTA.
100 μL of the reaction mixture was transferred to a streptavidin coated detection plate (EvenCoat Streptavidin Coated Plates, 96-Well, R&D Systems) and incubated for 30 minutes at room temperature. The plates were washed 4 times with 100 μL per well of PBS containing 0.05% Tween-20. Plates were then incubated with 50 μL per well of antibody cocktail of Anti-pERM antibody (Cell Signaling Technology) diluted 1:5000, plus Anti-Rabbit IgG EuN1 at 0.242 μg/ml (Perkin-Elmer Life Sciences) in a solution of 10 mM MOPS pH=7.5, 150 mM NaCl, 0.05% Tween-20, 0.02% NaN3, 1% BSA, 0.1% Gelatin for 45 minutes. The plates were washed 4× with 100 μL per well of PBS containing 0.05% Tween-20. Then 100 μL per well of DELFIA Enhancement Solution were added to the plate and then read on an EnVision Model 2103 using a 340 nm excitation wavelength and a 665 nm emission detection.

The structures appear in SMILES notation. Counter-ions that a name gives are not always drawn.

In turn, `CC(C)Oc1cc2c(O[C@@H]3CCCN(C(=O)CC#N)C3)ccnc2cc1C(N)=O` [Example 28, 4-{[(3R)-1-(cyanoacetyl)piperidin-3-yl]oxy}-6-(propan-2-yloxy)quinoline-7-carboxamide] returned an IC50 of 4 nM.
`Cc1cc(O[C@@H]2CCCN(C(=O)CC#N)C2)c2cc(OC(C)C)c(C(N)=O)cc2n1` [Example 29, (R)-4-((1-(2-cyanoacetyl)piperidin-3-yl)oxy)-6-isopropoxy-2-methylquinoline-7-carboxamide]: inhibition was half-maximal at 148 nM (IC50).
Regarding `COc1cc2c(O[C@@H]3CCCN(C(=O)CC#N)C3)ccnc2cc1C(N)=O` [Example 30, (R)-4-((1-(2-cyanoacetyl)piperidin-3-yl)oxy)-6-methoxyquinoline-7-carboxamide], the IC50 amounted to 28 nM.
The result for `N#CCC(=O)N1CCC[C@@H](Oc2ccnc3cc(C(N)=O)c(OC(F)F)cc23)C1` [Example 31, 4-{[(3R)-1-(cyanoacetyl)piperidin-3-yl]oxy}-6-(difluoromethoxy) quinoline-7-carboxamide] reads 101 nM.
Take `CCOc1cc2c(O[C@@H]3CCCN(C(=O)CC#N)C3)ccnc2cc1C(N)=O` [Example 32, 4-{[(3R)-1-(cyanoacetyl)piperidin-3-yl]oxy}-6-ethoxyquinoline-7-carboxamide]: the IC50 is 35 nM.
The molecule `N#CCC(=O)N1CCC[C@@H](Oc2ccnc3cc(C(N)=O)c(OC4CCC4)cc23)C1` [Example 33, (R)-4-((1-(2-cyanoacetyl)piperidin-3-yl)oxy)-6-cyclobutoxyquinoline-7-carboxamide] returned an IC50 of 272 nM.
The result for `CC(C)Oc1cc2c(O[C@@H]3CCCN(C(=O)CCC#N)C3)ccnc2cc1C(N)=O` [Example 35] reads 266 nM; that for `CC(C)Oc1cc2c(O[C@@H]3CCCN(C(=O)CC#N)C3)nccc2cc1C(N)=O` [Example 36, 1-{[(3R)-1-(cyanoacetyl)piperidin-3-yl]oxy}-7-(propan-2-yloxy)isoquinoline-6-carboxamide], 5 nM.
`CC(C)Oc1cc2c(O[C@@H]3CCCN(C(=O)CC#N)C3)ncc(Cl)c2cc1C(N)=O` [Example 37, 4-chloro-1-{[(3R)-1-(cyanoacetyl)piperidin-3-yl]oxy}-7-(propan-2-yloxy)isoquinoline-6-carboxamide] came in with an IC50 of 40 nM.
The result for `CC(C)Oc1cc2c(O[C@@H]3CCCN(C(=O)CC#N)C3)ncc(C#N)c2cc1C(N)=O` [Example 38, 4-cyano-1-{[(3R)-1-(cyanoacetyl)piperidin-3-yl]oxy}-7-(propan-2-yloxy)isoquinoline-6-carboxamide] reads 162 nM; that for `CC(C)Oc1cc2c(O[C@H]3CCN(C(=O)CC#N)C3)ccnc2cc1C(N)=O` [Example 39, 4-{[(3S)-1-(cyanoacetyl)pyrrolidin-3-yl]oxy}-6-(propan-2-yloxy)quinoline-7-carboxamide], 156 nM.
`CC(C)Oc1cc2c(O[C@@H]3CCN(C(=O)CC#N)C3)ccnc2cc1C(N)=O` [Example 40, 4-{[(3R)-1-(cyanoacetyl)pyrrolidin-3-yl]oxy}-6-(propan-2-yloxy)quinoline-7-carboxamide] showed an IC50 of 82 nM.
In the case of `CC(O)CN1CCC(Oc2nccc3cc(C(N)=O)c(OC(C)C)cc23)CC1` (centres unmarked) [Example 41, 1-{f[1-(2-hydroxypropyl)piperidin-4-yl]oxy}-7-(propan-2-yloxy)isoquinoline-6-carboxamide], inhibition was half-maximal at 883 nM (IC50).
For the molecule `Cc1cc(O[C@@H]2CCCN(C(=O)CO)C2)c2cc(OC(C)C)c(C(N)=O)cc2n1` [Example 42, 4-{[(3R)-1-(hydroxyacetyl)piperidin-3-yl]oxy}-2-methyl-6-(propan-2-yloxy)quinoline-7-carboxamide], half-maximal inhibition (IC50) was put at 388 nM.
The figure for `CC(=O)N1CCCC(Oc2ccnc3cc(C(N)=O)c(OC(C)C)cc23)C1` (centres unmarked) [Example 43, 4-[(1-acetylpiperidin-3-yl)oxy]-6-(propan-2-yloxy)quinoline-7-carboxamide] is 399 nM.
In turn, `CC(C)Oc1cc2c(OC3CCCN(S(C)(=O)=O)C3)ccnc2cc1C(N)=O` (centres unmarked) [Example 45, 4-{[1-(methylsulfonyl)piperidin-3-yl]oxy}-6-(propan-2-yloxy)quinoline-7-carboxamide] had an IC50 of 254 nM.
On to `CC(C)Oc1cc2c(O[C@@H]3CCCN(C(=O)[C@@H](N)CC#N)C3)ccnc2cc1C(N)=O` [Example 46, 4-({(3R)-1-[(2S)-2-amino-3-cyanopropanoyl]piperidin-3-yl}oxy)-6-(propan-2-yloxy)quinoline-7-carboxamide trifluoroacetate], for which the half-maximal inhibitory concentration (IC50) amounted to 97 nM.
In the case of `CC(C)Oc1cc2c(O[C@@H]3CCCN(C(=O)[C@H](N)CC#N)C3)ccnc2cc1C(N)=O` [Example 48, 4-({(3R)-1-[(2R)-2-amino-3-cyanopropanoyl]piperidin-3-yl}oxy)-6-(propan-2-yloxy)quinoline-7-carboxamide trifluoroacetate], the IC50 came out at 299 nM.
The figure for `CC(C)Oc1cc2c(O[C@H]3CN(C(=O)CC#N)CC[C@@H]3C)nccc2cc1C(N)=O` [Example 49, 1-{[(3R,4S)-1-(cyanoacetyl)-4-methylpiperidin-3-yl]oxy}-7-(propan-2-yloxy)isoquinoline-6-carboxamide] is 29 nM.
`CC(C)Oc1cc2c(OC3CCN(C(=O)CC#N)CC3)nccc2cc1C(N)=O` [Example 50, 1-{[1-(cyanoacetyl)piperidin-4-yl]oxy}-7-(propan-2-yloxy)isoquinoline-6-carboxamide]: the midpoint of inhibition, the IC50, lay at 514 nM.
Molecule `CC(C)Oc1cc2c(OC3CCN(C(=O)CO)CC3)nccc2cc1C(N)=O` [Example 51, 1-{[1-(hydroxyacetyl)piperidin-4-yl]oxy}-7-(propan-2-yloxy)isoquinoline-6-carboxamide] displayed a half-maximal inhibitory concentration (IC50) of 157 nM.
As to `CC(C)Oc1cc2c(O[C@H]3CN(C(=O)CC#N)CC[C@@H]3C)ccnc2cc1C(N)=O` [Example 52, 4-{[(3R,4S)-1-(cyanoacetyl)-4-methylpiperidin-3-yl]oxy}-6-(propan-2-yloxy)quinoline-7-carboxamide], 65 nM corresponded to half-maximal inhibition (IC50).
Turning to `CC(C)Oc1cc2c(O[C@@H]3CCCNC3)nccc2cc1C(N)=O` [Example 53, 1-[(3R)-piperidin-3-yloxy]-7-(propan-2-yloxy)isoquinoline-6-carboxamide hydrochloride], the midpoint of inhibition, the IC50, lay at 43 nM.
The result for `CC(C)Oc1cc2c(O[C@@H]3CCCNC3)ncc(Br)c2cc1C(N)=O` [Example 54, 4-bromo-1-[(3R)-piperidin-3-yloxy]-7-(propan-2-yloxy)isoquinoline-6-carboxamide hydrochloride] reads 591 nM; that for `CC(C)Oc1cc2c(O[C@@H]3CCCNC3)ncc(Cl)c2cc1C(N)=O` [Example 55, 4-chloro-1-[(3R)-piperidin-3-yloxy]-7-(propan-2-yloxy)isoquinoline-6-carboxamide hydrochloride], 221 nM; that for `Cc1cnc(O[C@@H]2CCCNC2)c2cc(OC(C)C)c(C(N)=O)cc12` [Example 56, 4-methyl-1-[(3R)-piperidin-3-yloxy]-7-(propan-2-yloxy)isoquinoline-6-carboxamide hydrochloride], 288 nM.
The figure for `CC(C)Oc1cc2c(OC3CCCNC3)cccc2cc1C(N)=O` (centres unmarked) [Example 57, 3-isopropoxy-5-(piperidin-3-yloxy)-2-naphthamide hydrochloride] is 40 nM; for `CC(C)Oc1cc2c(O[C@@H]3CCCNC3)ccnc2cc1C(N)=O` [Example 58, (R)-4-(piperidin-3-yloxy)-6-(propan-2-yloxy)quinoline-7-carboxamide hydrochloride] it is 135 nM; for `CC(C)Oc1cc2c(O[C@@H]3CC[C@H](C)NC3)ccnc2cc1C(N)=O` [Example 59, 4-{[(3R,6S)-6-methylpiperidin-3-yl]oxy}-6-(propan-2-yloxy)quinoline-7-carboxamide] it is 919 nM.

In general, IC50 refers to the point on the concentration scale where inhibition reaches its midpoint. Read a low IC50 as greater potency in that assay.
